Assays:
Assay in all cases: area under dose-response curve of % growth inhibition (log2 RLU vs DMSO / staurosporine), 1e-11 to 1e-4 M (% x log10 M); higher = more growth inhibition
[1] = system: DIPGX37 (H3.3 K27M diffuse intrinsic pontine glioma line)
Method in brief: (§1)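 On 1% Geltrex-coated 384-well plates, patient-derived pHGG/DIPG cell lines and astrocytes were treated in triplicate across 10 threefold dilutions (mean top concentration 35 μM) for 7 days, with iAstro treated for 3 days, at 37 °C, 5% CO2. Log2-transformed CellTiter-Glo luminescence was normalised per plate to % activity between solvent and positive controls. Area under the curve was obtained by the trapezoid rule from a log-logistic fit, or from a smoothing spline when that fit failed.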

[2] = system: HGGX6 (H3.3 G34R paediatric high-grade glioma line)
Method in brief: as §1

[3] = system: DIPGX29 (H3.3 K27M diffuse intrinsic pontine glioma line)
Method in brief: as §1

[4] = system: HGGX39 (paediatric high-grade glioma line)
Method in brief: as §1

Row | Structure (SMILES) | area under dose-response curve [1] | area under dose-response curve [2] | area under dose-response curve [3] | area under dose-response curve [4]
1 | COc1cc(C#N)ccc1S(=O)(=O)Nc1ccc2c(c1)cc(C)c(=O)n2C [NI-57] | 7.6 | 15.9 | 13.6 | 22.9
2 | CC1CS(=O)(=O)CCN1/N=C/c1ccc([N+](=O)[O-])o1 (configuration not stated) [NIFURTIMOX] | 17.9 | 22 | 18.2 | 23.6
3 | Cc1cn(-c2cc(NC(=O)c3ccc(C)c(Nc4nccc(-c5cccnc5)n4)c3)cc(C(F)(F)F)c2)cn1 [NILOTINIB] | 18.9 | 16.8 | 14.3 | 14.9
4 | Cc1ncc(CNC(=O)N(CCCl)N=O)c(N)n1 [NIMUSTINE] | 0 | 1.35 | 1.11 | 1.19
5 | COc1ccc2c(c1OC)C(=O)O[C@@H]2[C@H]1c2c(cc3c(c2OC)OCO3)CCN1C [NOSCAPINE] | 4.1 | 3.61 | 3.97 | 3.21
6 | CN1CCN(c2ccc(-c3cccc(CN4CCOCC4)c3)cc2NC(=O)c2c[nH]c(=O)cc2C(F)(F)F)CC1 [OICR-9429] | 4.44 | 15.6 | 6.88 | 6.53
7 | Cc1ccc(Nc2nccc(N(C)c3ccc4c(C)n(C)nc4c3)n2)cc1S(N)(=O)=O [PAZOPANIB] | 12.6 | 16.8 | 14.4 | 14.8
8 | Nc1nc2[nH]cc(CCc3ccc(C(=O)N[C@@H](CCC(=O)O)C(=O)O)cc3)c2c(=O)[nH]1 [PEMETREXED] | 9.28 | 12.7 | 34.6 | 23.2
9 | OC[C@H]1O[C@@H](n2cnc3c2N=CNC[C@H]3O)C[C@@H]1O [PENTOSTATIN] | 10.9 | 5.39 | 3.92 | 10
10 | COc1ccccc1S(=O)(=O)Nc1ccc2c(c1)CN(C)C(=O)N2 [PFI-1] | 27.8 | 17.1 | 23.7 | 20.6
11 | O=C(/C=C/N1C[C@H]2C[C@@H]1CN2c1ccccn1)c1ccccc1O [PFI-3] | 20.6 | 11.5 | 9.58 | 10.6
12 | COc1ccccc1C(=O)Nc1cc2c(cc1N1CCCC1)n(C)c(=O)n2C [PFI-4] | 6.98 | 18.2 | 21.9 | 20.5
13 | CC(C)N(C[C@H]1O[C@@H](n2cnc3c(N)ncnc32)[C@H](O)[C@@H]1O)[C@H]1C[C@@H](CCc2nc3cc(C(C)(C)C)ccc3[nH]2)C1 [PINOMETOSTAT] | 14.5 | 4.37 | 6.21 | 0.36
14 | CCc1ccc(CCOc2ccc(CC3SC(=O)NC3=O)cc2)nc1 (configuration not stated) [PIOGLITAZONE] | 35.1 | 11.5 | 10.8 | 11.2
15 | c1cc(CN2CCCNCCNCCCNCC2)ccc1CN1CCCNCCNCCCNCC1 [PLERIXAFOR] | 32.1 | 3.55 | 16.6 | 21
16 | CCN(CC)CCOC(=O)c1ccc(N)cc1 [PROCAINE] | 1.95 | 0 | 3.12 | 1.44
17 | CCc1nc(N)nc(N)c1-c1ccc(Cl)cc1 [PYRIMETHAMINE] | 6.34 | 26.9 | 25 | 26.5
18 | Cc1nc(=O)c2cc(CN(C)c3ccc(C(=O)N[C@@H](CCC(=O)O)C(=O)O)s3)ccc2[nH]1 [RALTITREXED] | 26.9 | 16 | 26.5 | 33.4
19 | COc1cc(OC)c2c(=O)[nH]c(-c3cc(C)c(OCCO)c(C)c3)nc2c1 [RVX-208] | 2.33 | 12 | 5.91 | 8.2
20 | COc1ccc(CCc2nc3cc(-c4c(C)noc4C)ccc3n2C[C@H](C)N2CCOCC2)cc1Cl [SGC-CBP30] | 13.9 | 11.7 | 7.64 | 14
21 | CC1=C(CC(=O)O)c2cc(F)ccc2/C1=C\c1ccc([S+](C)[O-])cc1 (configuration not stated) [SULINDAC] | 16.9 | 6.88 | 3.44 | 4.57
22 | CC1(C)CCC(C)(C)c2cc(NC(=O)c3ccc(C(=O)O)cc3)ccc21 [TAMIBAROTENE] | 37.3 | 28.3 | 19.3 | 44.5
23 | COc1cccc2c1c(O)c(C(=O)N(C)c1ccc(C(F)(F)F)cc1)c(=O)n2C [TASQUINIMOD] | 4.17 | 0 | 0 | 0
24 | Cn1nnc2c(C(N)=O)ncn2c1=O [TEMOZOLOMIDE] | 15.4 | 15.3 | 5.13 | 11.3
25 | COc1cc2nccc(Oc3ccc(NC(=O)Nc4cc(C)on4)c(Cl)c3)c2cc1OC [TIVOZANIB] | 31.3 | 42.5 | 14.6 | 21.7
26 | O=c1[nH]c(=O)n([C@H]2C[C@H](O)[C@@H](CO)O2)cc1C(F)(F)F [TRIFLURIDINE] | 22.2 | 3.99 | 7.68 | 21
27 | COc1cc(NCc2ccc3nc(N)nc(N)c3c2C)cc(OC)c1OC [TRIMETREXATE] | 11.6 | 31.9 | 51 | 28.7
28 | CN1[C@@H]2CC[C@H]1C[C@@H](OC(=O)c1c[nH]c3ccccc13)C2 [TROPISETRON] | 33.4 | 10.2 | 18.7 | 19.5
